These are literature values, as cited in patent publication US20100279974A1, “Nucleosides With Non-Natural Bases as Anti-Viral Agents” (priority 2005, published 2010).

For the data set the following is noted: in vivo.

As to `NC(=O)c1nccn(C2OC(COP(=O)(O)OP(=O)(O)OP(=O)(O)O)C(O)C2O)c1=O` (centres unmarked), the antiviral activity result was “exhibits antiviral activity in vivo”.
As for `NC(=O)c1nccn([C@@H]2O[C@H](CO)[C@@H](O)[C@H]2O)c1=O` [non-phosphorylated nucleoside form], the antiviral activity entry was “appears to be inactive”.
